Measurements published in ChEMBL document CHEMBL1154627, “Structure-activity relationship studies of targeting ligands against breast cancer cells” (J Med Chem, 2009).

Assay: Binding affinity to alpha3beta1 integrin receptor in human MDA-MB-231 cells assessed as inhibition of cell binding to immobilized LXY1 peptide by cell adherence assay
Assay type: cell-based

IC50 [µM] | Compound
11.9 | NC(=O)C[C@@H]1NC(=O)[C@@H]2C[C@@H](O)CN2C(=O)CNC(=O)[C@H](Cc2cc([N+](=O)[O-])c(O)c([N+](=O)[O-])c2)NC(=O)CNC(=O)[C@@H](CC(=O)O)NC(=O)[C@H](N)CSSC[C@H](C(N)=O)NC1=O
> 25 | NC(=O)C[C@@H]1NC(=O)[C@@H]2C[C@@H](O)CN2C(=O)CNC(=O)[C@H](Cc2ccc(O)c([N+](=O)[O-])c2)NC(=O)CNC(=O)[C@@H](CC(=O)O)NC(=O)[C@H](N)C/C=C/C[C@H](C(N)=O)NC1=O
> 25 | NC(=O)C[C@@H]1NC(=O)[C@@H]2C[C@@H](O)CN2C(=O)CNC(=O)[C@H](Cc2ccc(O)c([N+](=O)[O-])c2)NC(=O)CNC(=O)[C@@H](CC(=O)O)NC(=O)[C@H](NCc2ccc(F)c(F)c2)CSSC[C@H](C(N)=O)NC1=O
11.3 | NC(=O)C[C@@H]1NC(=O)[C@@H]2C[C@@H](O)CN2C(=O)CNC(=O)[C@H](c2cccc(F)c2)NC(=O)CNC(=O)[C@@H](CC(=O)O)NC(=O)[C@H](N)CSSC[C@H](C(N)=O)NC1=O
> 25 | CC(C)CN[C@@H]1CSSC[C@H](C(N)=O)NC(=O)[C@H](CC(N)=O)NC(=O)[C@@H]2C[C@@H](O)CN2C(=O)CNC(=O)[C@H](Cc2ccc(O)c([N+](=O)[O-])c2)NC(=O)CNC(=O)[C@@H](CC(=O)O)NC1=O
> 25 | CCCCNC(=O)N[C@@H]1CSSC[C@H](C(N)=O)NC(=O)[C@H](CC(N)=O)NC(=O)[C@@H]2C[C@@H](O)CN2C(=O)CNC(=O)[C@H](Cc2ccc(O)c([N+](=O)[O-])c2)NC(=O)CNC(=O)[C@@H](CC(=O)O)NC1=O
> 25 | CCCCCCN[C@@H]1CSSC[C@H](C(N)=O)NC(=O)[C@H](CC(N)=O)NC(=O)[C@@H]2C[C@@H](O)CN2C(=O)CNC(=O)[C@H](Cc2ccc(O)c([N+](=O)[O-])c2)NC(=O)CNC(=O)[C@@H](CC(=O)O)NC1=O
> 25 | COc1cc(C[C@@H]2NC(=O)CNC(=O)[C@@H](CC(=O)O)NC(=O)[C@H](N)CSSC[C@H](C(N)=O)NC(=O)[C@H](CC(N)=O)NC(=O)[C@@H]3C[C@@H](O)CN3C(=O)CNC2=O)ccc1O
> 25 | NC(=O)C[C@@H]1NC(=O)[C@@H]2C[C@@H](O)CN2C(=O)CNC(=O)[C@H](Cc2cc(I)c(O)c(I)c2)NC(=O)CNC(=O)[C@@H](CC(=O)O)NC(=O)[C@H](N)CSSC[C@H](C(N)=O)NC1=O
13.6 | NCC[C@@H]1NC(=O)[C@@H]2C[C@@H](O)CN2C(=O)CNC(=O)[C@H](Cc2ccc(O)c([N+](=O)[O-])c2)NC(=O)CNC(=O)[C@@H](CC(=O)O)NC(=O)[C@H](N)CSSC[C@H](C(N)=O)NC1=O
> 25 | NC(=O)C[C@@H]1NC(=O)[C@@H]2C[C@@H](O)CN2C(=O)CNC(=O)[C@H](Cc2ccc(O)c([N+](=O)[O-])c2)NC(=O)CNC(=O)[C@@H](CC(=O)O)NC(=O)[C@H](NC(=O)Nc2ccc([N+](=O)[O-])cc2)CSSC[C@H](C(N)=O)NC1=O
3.1 | NC(=O)C[C@@H]1NC(=O)[C@@H]2C[C@@H](O)CN2C(=O)CNC(=O)[C@H](c2cccc([N+](=O)[O-])c2)NC(=O)CNC(=O)[C@@H](CC(=O)O)NC(=O)[C@H](N)CSSC[C@H](C(N)=O)NC1=O
5.9 | NC(=O)C[C@@H]1NC(=O)[C@@H]2C[C@@H](O)CN2C(=O)CNC(=O)[C@H](c2cc(F)c(F)c(F)c2)NC(=O)CNC(=O)[C@@H](CC(=O)O)NC(=O)[C@H](N)CSSC[C@H](C(N)=O)NC1=O
> 25 | NC(=O)C[C@@H]1NC(=O)[C@@H]2C[C@@H](O)CN2C(=O)CNC(=O)[C@H](Cc2ccc(O)c(I)c2)NC(=O)CNC(=O)[C@@H](CC(=O)O)NC(=O)[C@H](N)CSSC[C@H](C(N)=O)NC1=O
> 25 | NC(=O)C[C@@H]1NC(=O)[C@@H]2C[C@@H](O)CN2C(=O)CNC(=O)[C@H](Cc2ccc(O)c([N+](=O)[O-])c2)NC(=O)CNC(=O)[C@@H](CC(=O)O)NC(=O)[C@H](N)CNC(=O)C[C@H](C(N)=O)NC1=O
19.8 | NC(=O)C[C@@H]1NC(=O)[C@@H]2C[C@@H](O)CN2C(=O)CNC(=O)[C@H](Cc2ccc(O)c(Cl)c2)NC(=O)CNC(=O)[C@@H](CC(=O)O)NC(=O)[C@H](N)CSSC[C@H](C(N)=O)NC1=O
> 25 | NC(=O)C[C@@H]1NC(=O)[C@@H]2C[C@@H](O)CN2C(=O)CNC(=O)[C@H](Cc2ccc(O)c([N+](=O)[O-])c2)NC(=O)CNC(=O)[C@@H](CC(=O)O)NC(=O)[C@H](NCc2cccnc2)CSSC[C@H](C(N)=O)NC1=O
17.1 | NC(=O)[C@H]1CSSC[C@@H](N)C(=O)N[C@H](CC(=O)O)C(=O)NCC(=O)N[C@@H](Cc2ccc(O)c([N+](=O)[O-])c2)C(=O)NCC(=O)N2C[C@H](O)C[C@H]2C(=O)N[C@@H](CC(=O)O)C(=O)N1
> 25 | NC(=O)C[C@@H]1NC(=O)[C@@H]2C[C@@H](O)CN2C(=O)CNC(=O)[C@H](CCc2ccc(O)cc2)NC(=O)CNC(=O)[C@@H](CC(=O)O)NC(=O)[C@H](N)CSSC[C@H](C(N)=O)NC1=O
19.6 | NC(=O)C[C@@H]1NC(=O)[C@@H]2C[C@@H](O)CN2C(=O)CNC(=O)[C@H](c2ccccc2[N+](=O)[O-])NC(=O)CNC(=O)[C@@H](CC(=O)O)NC(=O)[C@H](N)CSSC[C@H](C(N)=O)NC1=O
> 25 | NC(=O)C[C@@H]1NC(=O)[C@@H]2C[C@@H](O)CN2C(=O)CNC(=O)[C@H](Cc2ccc(O)c([N+](=O)[O-])c2)NC(=O)CNC(=O)[C@@H](CC(=O)O)NC(=O)[C@H](NCC2CCCCC2)CSSC[C@H](C(N)=O)NC1=O
> 25 | NC(=O)C[C@@H]1NC(=O)[C@@H]2C[C@@H](O)CN2C(=O)CNC(=O)[C@H](Cc2cc(Br)c(O)c(Br)c2)NC(=O)CNC(=O)[C@@H](CC(=O)O)NC(=O)[C@H](N)CSSC[C@H](C(N)=O)NC1=O

Further lines, the compound ahead of its results:

Compound | IC50 [µM]
COC(=O)c1ccc(NC(=O)N[C@@H]2CSSC[C@H](C(N)=O)NC(=O)[C@H](CC(N)=O)NC(=O)[C@@H]3C[C@@H](O)CN3C(=O)CNC(=O)[C@H](Cc3ccc(O)c([N+](=O)[O-])c3)NC(=O)CNC(=O)[C@@H](CC(=O)O)NC2=O)cc1 | > 25
NC(=O)C[C@@H]1NC(=O)[C@@H]2C[C@@H](O)CN2C(=O)CNC(=O)[C@H](Cc2ccc(O)c([N+](=O)[O-])c2)NC(=O)CNC(=O)[C@@H](CC(=O)O)NC(=O)[C@H](NC(=O)Nc2ccc(C(F)(F)F)cc2)CSSC[C@H](C(N)=O)NC1=O | > 25
COc1ccc(NC(=O)N[C@@H]2CSSC[C@H](C(N)=O)NC(=O)[C@H](CC(N)=O)NC(=O)[C@@H]3C[C@@H](O)CN3C(=O)CNC(=O)[C@H](Cc3ccc(O)c([N+](=O)[O-])c3)NC(=O)CNC(=O)[C@@H](CC(=O)O)NC2=O)cc1OC | > 25
NC(=O)C[C@@H]1NC(=O)[C@@H]2C[C@@H](O)CN2C(=O)CNC(=O)[C@H](c2ccc(F)cc2)NC(=O)CNC(=O)[C@@H](CC(=O)O)NC(=O)[C@H](N)CSSC[C@H](C(N)=O)NC1=O | 23.7
NC(=O)C[C@@H]1NC(=O)[C@@H]2C[C@@H](O)CN2C(=O)CNC(=O)[C@H](Cc2ccc(O)c([N+](=O)[O-])c2)NC(=O)CNC(=O)[C@@H](CC(=O)O)NC(=O)[C@H](NC(=O)CCc2ccccc2)CSSC[C@H](C(N)=O)NC1=O | > 25
CC1(C)SSC(C)(C)[C@H](C(N)=O)NC(=O)[C@H](CC(N)=O)NC(=O)[C@@H]2C[C@@H](O)CN2C(=O)CNC(=O)[C@H](Cc2ccc(O)c([N+](=O)[O-])c2)NC(=O)CNC(=O)[C@@H](CC(=O)O)NC(=O)[C@@H]1N | > 25
NC(=O)C[C@@H]1NC(=O)[C@@H]2C[C@@H](O)CN2C(=O)CNC(=O)[C@H](Cc2ccc(O)c([N+](=O)[O-])c2)NC(=O)CNC(=O)[C@@H](CC(=O)O)NC(=O)[C@H](NC(=O)NC2CCCCC2)CSSC[C@H](C(N)=O)NC1=O | > 25
NC(=O)C[C@@H]1NC(=O)[C@@H]2C[C@@H](O)CN2C(=O)CNC(=O)[C@H](c2cccc(C(F)(F)F)c2)NC(=O)CNC(=O)[C@@H](CC(=O)O)NC(=O)[C@H](N)CSSC[C@H](C(N)=O)NC1=O | 11.9
NC(=O)C[C@@H]1NC(=O)[C@@H]2C[C@@H](O)CN2C(=O)CNC(=O)[C@H](c2c(F)c(F)c(F)c(F)c2F)NC(=O)CNC(=O)[C@@H](CC(=O)O)NC(=O)[C@H](N)CSSC[C@H](C(N)=O)NC1=O | 11.7
NC(=O)C[C@@H]1NC(=O)[C@@H]2C[C@@H](O)CN2C(=O)CNC(=O)[C@@H]2CCCN2C(=O)CNC(=O)[C@@H](CC(=O)O)NC(=O)[C@H](N)CSSC[C@H](C(N)=O)NC1=O | 16.9
NC(=O)C[C@@H]1NC(=O)[C@@H]2C[C@@H](O)CN2C(=O)CNC(=O)[C@@H]2C[C@@H](F)CN2C(=O)CNC(=O)[C@@H](CC(=O)O)NC(=O)[C@H](N)CSSC[C@H](C(N)=O)NC1=O | 18.5
NC(=O)C[C@@H]1NC(=O)[C@@H]2C[C@@H](O)CN2C(=O)CNC(=O)[C@H](Cc2ccc(O)c([N+](=O)[O-])c2)NC(=O)CNC(=O)[C@@H](CC(=O)O)NC(=O)[C@H](NC(=O)Nc2ccc(-c3ccccc3)cc2)CSSC[C@H](C(N)=O)NC1=O | > 25
NC(=O)C[C@@H]1NC(=O)[C@@H]2C[C@@H](O)CN2C(=O)CNC(=O)[C@@H]2SCCN2C(=O)CNC(=O)[C@@H](CC(=O)O)NC(=O)[C@H](N)CSSC[C@H](C(N)=O)NC1=O | 10.5
NC(=O)C[C@@H]1NC(=O)[C@@H]2C[C@@H](O)CN2C(=O)CNC(=O)[C@@H]2CCN2C(=O)CNC(=O)[C@@H](CC(=O)O)NC(=O)[C@H](N)CSSC[C@H](C(N)=O)NC1=O | 21.4
NC(=O)C[C@@H]1NC(=O)[C@@H]2C[C@@H](O)CN2C(=O)CNC(=O)[C@H](Cc2ccc(O)c([N+](=O)[O-])c2)NC(=O)CNC(=O)[C@@H](CC(=O)O)NC(=O)[C@H](NCc2ccc(C(F)(F)F)cc2)CSSC[C@H](C(N)=O)NC1=O | > 25
NC(=O)C[C@@H]1NC(=O)[C@@H]2C[C@@H](O)CN2C(=O)CNC(=O)[C@H](c2ccc(C(F)(F)F)cc2)NC(=O)CNC(=O)[C@@H](CC(=O)O)NC(=O)[C@H](N)CSSC[C@H](C(N)=O)NC1=O | > 25
NC(=O)C[C@@H]1NC(=O)[C@@H]2C[C@@H](O)CN2C(=O)CNC(=O)[C@@H]2C=CCN2C(=O)CNC(=O)[C@@H](CC(=O)O)NC(=O)[C@H](N)CSSC[C@H](C(N)=O)NC1=O | 15.3
NC(=O)C[C@@H]1NC(=O)[C@@H]2C[C@@H](O)CN2C(=O)CNC(=O)[C@H](c2ccccc2Cl)NC(=O)CNC(=O)[C@@H](CC(=O)O)NC(=O)[C@H](N)CSSC[C@H](C(N)=O)NC1=O | 19
